Three substances from US5028586A, “Insulin derivatives and pharmaceutical preparations containing these derivatives” (Novo Norkisk A/S, priority 1985, dated 1991) can be followed below.

This assay deals with guinea pigs. Nature of the assay: Protracted hypoglycemia in guinea pigs after subcutaneous injection of insulin derivative preparations. In kind it is in vivo. On the procedure: 25 ml of a medium containing 1.6 %(w/v) of glycerol. 0.33 % (w/v) of m-cresol, 1/75 M of sodium phosphate, pH value 7.3, were prepared. The solution was sterilized by filtration. 1.5 mg of human insulin-B21-methyl ester, prepared as described in Example 1, were suspended in 1.0 ml of medium.
4.5 mg of human insulin-A17-methyl ester were dissolved in 2.7 ml of 0.015 M phosphoric acid. 21 mg of sodium chloride and 4.1 μliters of an aqueous solution of 152 mM zinc chloride were added. The solution was sterilized by filtration. The pH value of the solution was adjusted to 8.0 under aseptic conditions with a sterile aqueous solution of sodium hydroxide. The pH value of the solution was then readjusted to 7.3 with sterile hydrochloric acid, and rhombohedral crystals with a mean size of 10 μm were formed with gentle stirring at 21° C. The volume was adjusted to 3 ml with sterile water.
Moreover, a sterile solution of 3 ml of 13.5 mM phosphoric acid in admixture with 21 mg of sodium chloride and 9 μliters of m-cresol was prepared, and the pH value was adjusted to 7.3 with a sterile aqueous solution of sodium hydroxide. The two solutions were combined.
15 mg of human insulin-A4-gln, obtained as described in Example 5, was dissolved in 10 ml of a solution containing 13.5 mM phosphoric acid, 0.3 % m-cresol and 1.6 % glycerol. The solution was sterilized by filtration, and the pH value was adjusted to 9,0 with a sterile solution of sodium hydroxide. The pH value was readjusted to 8.2 with a sterile solution of hydrochloric acid, and human insulin-A4-gln crystallized as rhombohedral crystals with gentle stirring.

On to human insulin-A4-gln, for which, for the setting “subcutaneous injection of crystalline suspension at 0.5 IU/kg, "Insulatard" at 0.5 IU/kg”, the “protracted hypoglycemic effect compared with "Insulatard"” value is “nearly identical both in timing and amplitude”.
On to human insulin-A17-methyl ester, for which, where the note is “dosage 18 μg/kg, crystalline zinc preparation”, the “biological activity (area below the blood glucose curve) compared with human insulin” value was “nearly the same biological activity as human insulin”. The “protracted insulin action compared with "Insulatard"” value (dosage 18 μg/kg, crystalline zinc preparation, comparator "Insulatard") is given as “longer than the protracted action of the known injection preparation”. Further, the hypoglycemia induced entry (dosage 18 μg/kg, crystalline zinc preparation, pH 7.3) is recorded as “strongly protracted hypoglycemia”.
Consider human insulin-B21-methyl ester, for which the “protracted insulin action compared with "Insulatard"” value (subcutaneous, zinc-free preparation, comparator standard protamin insulin preparation "Insulatard") is reported as “comparable to the hypoglycemia observed after injection of a standard protamin insulin preparation”. The “hypoglycemia after subcutaneous administration” value (subcutaneous, zinc-free suspension 1.5 mg in 1.0 ml medium, pH 7.3) is reported as “protracted hypoglycemia was observed”.
